tested on: L-687,414-induced hyperlocomotion; test: L-687,414-induced hyperlocomotion; assay type: in vivo; conditions: Mus musculus; mice; dose 30 mg/kg ip, 15 min before 50 mg/kg s.c. L-687,414
Text: The authors described that hyperlocomotion induced by L-687,414 was inhibited by a series of known antipsychotic drugs. […] These findings predict antipsychotic activity for the present compounds, making them useful for the treatment of positive (psychosis) and negative symptoms of schizophrenia, substance abuse, alcohol and drug addiction, obsessive-compulsive disorders, cognitive impairment, bipolar disorders, mood disorders, major depression, resistant depression, anxiety disorders, Alzheimer's disease, autism, Parkinson's disease, chronic pain, borderline personality disorder, sleep disturbances, chronic fatigue syndrome, stiffness, antiinflammatory effects in arthritis and balance problems, and treatment of epilepsy and neurodevelopmental disorders with co-morbid epilepsy.
The described compounds of formula I reduce L-687,414-induced hyperlocomotion. This was assessed by using a computerized Digiscan 16 Animal Activity Monitoring System (Omnitech Electronics, Columbus, Ohio) to quantify locomotor activity. Animals were kept under a 12 h light/dark cycle and experiments were performed during the light period. Each activity monitoring chamber consisted of a Plexiglas box (41×41×28 cm; W×L×H) with sawdust bedding on the floor surrounded by invisible horizontal and vertical infrared sensor beams. The test boxes were divided by a Plexiglas cross providing each mouse with 20×20 cm of moving space. Cages were connected to a Digiscan Analyzer linked to a computer that constantly collected the beam status information. Records of photocell beam interruptions for individual animals were taken every 5 min over the duration of the experimental session and the sum of the first 6 periods was used as the final parameter. At least 8 mice were used in each treatment group. Compounds were administered i.p. 15 min before a s.c. injection of 50 mg/kg of L-687,414. Mice were then transferred from their home cage to the recording chambers for a 15-min habituation phase allowing free exploration of the new environment. Horizontal activity was then recorded for a 30-min time period. The % inhibition of L-687,414-induced hyperlocomotion was calculated according to the equation: ((Veh+L-687,414 horizontal activity−drug+L-687,414 horizontal activity)/Veh+L−687,414 horizontal activity)×100
ID50 values, defined as doses of each compound producing 50% inhibition of L-687,414-induced hyperlocomotion, were calculated by linear regression analysis of a dose-response data using an Excel-based computer-fitting program.
As data was not presupposed to be normally distributed, groups treated with test compounds were statistically compared with the control (vehicle-treated) group using one-tailed Mann Whitney U tests. In statistics, the Mann-Whitney Utest (also called the Mann-Whitney-Wilcoxon (MWW) or Wilcoxon rank-sum test) is a non-parametric statistical hypothesis test for assessing whether one of two samples of independent observations tends to have larger values than the other. It is one of the most well-known non-parametric significance tests. […] P values given in table 1 are one-tailed since only decreases in locomotion were expected and tested for (Mann, H. B., Whitney, D. R. (1947), “On a Test of Whether one of Two Random Variables is Stochastically Larger than the Other”, Annals of Mathematical Statistics, 18 (1), 50-60).

Point of comparison: `Cc1ncc(-c2ccc3c(c2)N(c2cncc(N4CCOC4=O)n2)C(=O)C3(C)C)cn1` [Example 15, 3-(6-(3,3-Dimethyl-6-(2-methylpyrimidin-5-yl)-2-oxoindolin-1-yl)pyrazin-2-yl)oxazolidin-2-one], inhibition in vivo at 30 mg/kg 87.1%. Against it:
- Cc1ncc(-c2ccc3c(c2)N(c2cncc(N4CCOCC4)n2)C(=O)C3(C)C)cn1 [Example 1, 3,3-Dimethyl-6-(2-methylpyrimidin-5-yl)-1-(6-morpholinopyrazin-2-yl)indolin-2-one] — higher, 90%
- Cc1ncc(-c2ccc3c(c2)N(c2cncc(N4CCCC4=O)n2)C(=O)C3(C)C)cn1 [Example 3, 3,3-Dimethyl-6-(2-methylpyrimidin-5-yl)-1-(6-(2-oxopyrrolidin-1-yl)pyrazin-2-yl)indolin-2-one] — higher, 87.8%
- Cc1ncc(-c2ccc3c(c2)N(c2cnc(C)c(N4CCOCC4)n2)C(=O)C3(C)C)cn1 [Example 18, 3,3-Dimethyl-1-(5-methyl-6-morpholinopyrazin-2-yl)-6-(2-methylpyrimidin-5-yl)indolin-2-one] — higher, 88.8%
- Cc1ncc(-c2ccc3c(c2)N(c2cnc(C)c(N4CCOC4=O)n2)C(=O)C3(C)C)cn1 [Example 20, 3-(6-(3,3-Dimethyl-6-(2-methylpyrimidin-5-yl)-2-oxoindolin-1-yl)-3-methylpyrazin-2-yl)oxazolidin-2-one] — higher, 89.7%
- Cc1ncc(-c2ccc3c(c2)N(c2ccc4c(n2)N(C)C(=O)C4(C)C)C(=O)C3(C)C)cn1 [Example 39, 6-(3,3-Dimethyl-6-(2-methylpyrimidin-5-yl)-2-oxoindolin-1-yl)-1,3,3-trimethyl-1H-pyrrolo[2,3-b]pyridin-2(3H)-one] — higher, 99.5%
- Cc1ncc(-c2ccc3c(c2)N(c2cnc(-n4ccnc4C)cn2)C(=O)C3(C)C)cn1 [Example 50, 3,3-Dimethyl-1-(5-(2-methyl-1H-imidazol-1-yl)pyrazin-2-yl)-6-(2-methylpyrimidin-5-yl)indolin-2-one] — higher, 96.3%
- Cc1ncc(-c2ccc3c(c2)N(c2cnc4c(c2)C(C)(C)C(=O)N4C)C(=O)C3(C)C)cn1 [Example 54, 5-(3,3-Dimethyl-6-(2-methylpyrimidin-5-yl)-2-oxoindolin-1-yl)-1,3,3-trimethyl-1H-pyrrolo[2,3-b]pyridin-2(3H)-one] — higher, 93.5%
